This passage reports IC50 results from patent US20110212950A1, “4,4-DISUBSTITUTED PIPERIDINES” (NOVARTIS AG, priority 2007, published 2011).

The assay has as its target T1, renin (Homo sapiens, UniProt P00797).
T1 construct: This test measures the formation of angiotensin I in human plasma; from tissue; host or cells: human plasma
T1 sequence (P00797 67-406): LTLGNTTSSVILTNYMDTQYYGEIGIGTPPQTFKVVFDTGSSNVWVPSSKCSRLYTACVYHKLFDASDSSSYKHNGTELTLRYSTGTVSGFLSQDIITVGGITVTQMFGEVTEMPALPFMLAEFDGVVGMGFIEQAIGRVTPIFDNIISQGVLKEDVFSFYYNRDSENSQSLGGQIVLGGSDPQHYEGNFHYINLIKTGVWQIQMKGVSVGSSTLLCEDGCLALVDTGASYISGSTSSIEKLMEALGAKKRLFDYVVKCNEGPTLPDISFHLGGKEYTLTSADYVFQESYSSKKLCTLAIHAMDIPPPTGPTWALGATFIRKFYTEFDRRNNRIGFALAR
Description: in vitro test of Nussberger et al.: formation of angiotensin I in human plasma (radioimmunoassay). The format is biochemical. Particulars: inhibition of formation of angiotensin I in human plasma. On the procedure: The effect of renin inhibitors is detected inter alia experimentally by means of in vitro tests where the reduction in the formation of angiotensin I is measured in various systems (human plasma, purified human renin together with synthetic or natural renin substrate). The following in vitro test of Nussberger et al. (1987) J. Cardiovascular Pharmacol., Vol. 9, pp. 39-44, is used inter alia. This test measures the formation of angiotensin I in human plasma. The amount of angiotensin I formed is determined in a subsequent radioimmunoassay. The effect of inhibitors on the formation of angiotensin I is tested in this system by adding various concentrations of these substances. The IC50 is defined as the concentration of the particular inhibitor which reduces the formation of angiotensin I by 50%. The compounds of the present invention show inhibitory effects in the in vitro systems at minimal concentrations of about 10^−6 to about 10^−10 mol/I.

What is called IC50 is the midpoint of a concentration-inhibition curve. Low values mean greater potency, high ones weaker potency. Consider `COCCCN1CCOc2ccc(CO[C@H]3CNCC[C@]3(O)c3ccc(COCCOC)cc3)cc21` [Example 361, (3S,4S)-4-[4-(2-Methoxy-ethoxymethyl)-phenyl]-3-[4-(3-methoxy-propyl)-3,4-dihydro-2H-benzo[1,4]oxazin-6-ylmethoxy]-piperidin-4-ol], for which the half-maximal inhibitory concentration (IC50) is 40.4 nM.

Compound `COCCCN1CCOc2ccc(CO[C@H]3CNCC[C@]3(O)c3ccc(COC[C@@H](C)Cn4cnnn4)cc3)cc21` [Example 371, (3S,4S)-3-[4-(3-Methoxy-propyl)-3,4-dihydro-2H-benzo[1,4]oxazin-6-ylmethoxy]-4-[4-((S)-2-methyl-3-tetrazol-1-yl-propoxymethyl)-phenyl]-piperidin-4-ol] had a half-maximal inhibitory concentration (IC50) of 123 nM.

Compound `CCO[C@H](C)COCc1ccc([C@@]2(O)CCNC[C@@H]2OCc2ccc3c(c2)N(CCCOC)CCO3)c(OCCOC)c1` [Example 375, (3S,4S)-4-[4-((R)-2-Ethoxy-propoxymethyl)-2-(2-methoxy-ethoxy)-phenyl]-3-[4-(3-methoxy-propyl)-3,4-dihydro-2H-benzo[1.4]oxazin-6-ylmethoxy]-piperidin-4-ol] registered an IC50 of 84.3 nM.

Take `CCO[C@H](C)COCc1ccc([C@@]2(O)CCNC[C@@H]2OCc2ccc3c(c2)N(CCCOC)CCO3)c(CCOC)c1` [Example 378, (3S,4S)-4-[4-((R)-2-Ethoxy-propoxymethyl)-2-(2-methoxy-ethyl)-phenyl]-3-[4-(3-methoxy-propyl)-3,4-dihydro-2H-benzo[1,4]oxazin-6-ylmethoxy]-piperidin-4-ol]: the IC50 amounted to 9.6 nM.
